The target of one test is Aminopeptidase B (Homo sapiens, UniProt Q9H4A4). Put plainly: Compound was tested for binding affinity towards arginyl aminopeptidase.
The target of test [1] is T1, Aminopeptidase N (Homo sapiens, UniProt P15144). Put plainly: Compound was tested for binding affinity towards microsomal aminopeptidase; Kii was reported.
Test [2] deals with T1, Aminopeptidase N. Put plainly: Compound was tested for binding affinity towards microsomal aminopeptidase; Kis was reported.
For test [3], the target named is T1, Aminopeptidase N. Briefly: Compound was tested for binding affinity towards microsomal aminopeptidase.

The structures appear in SMILES notation.

T1 sequence (P15144 whole entry): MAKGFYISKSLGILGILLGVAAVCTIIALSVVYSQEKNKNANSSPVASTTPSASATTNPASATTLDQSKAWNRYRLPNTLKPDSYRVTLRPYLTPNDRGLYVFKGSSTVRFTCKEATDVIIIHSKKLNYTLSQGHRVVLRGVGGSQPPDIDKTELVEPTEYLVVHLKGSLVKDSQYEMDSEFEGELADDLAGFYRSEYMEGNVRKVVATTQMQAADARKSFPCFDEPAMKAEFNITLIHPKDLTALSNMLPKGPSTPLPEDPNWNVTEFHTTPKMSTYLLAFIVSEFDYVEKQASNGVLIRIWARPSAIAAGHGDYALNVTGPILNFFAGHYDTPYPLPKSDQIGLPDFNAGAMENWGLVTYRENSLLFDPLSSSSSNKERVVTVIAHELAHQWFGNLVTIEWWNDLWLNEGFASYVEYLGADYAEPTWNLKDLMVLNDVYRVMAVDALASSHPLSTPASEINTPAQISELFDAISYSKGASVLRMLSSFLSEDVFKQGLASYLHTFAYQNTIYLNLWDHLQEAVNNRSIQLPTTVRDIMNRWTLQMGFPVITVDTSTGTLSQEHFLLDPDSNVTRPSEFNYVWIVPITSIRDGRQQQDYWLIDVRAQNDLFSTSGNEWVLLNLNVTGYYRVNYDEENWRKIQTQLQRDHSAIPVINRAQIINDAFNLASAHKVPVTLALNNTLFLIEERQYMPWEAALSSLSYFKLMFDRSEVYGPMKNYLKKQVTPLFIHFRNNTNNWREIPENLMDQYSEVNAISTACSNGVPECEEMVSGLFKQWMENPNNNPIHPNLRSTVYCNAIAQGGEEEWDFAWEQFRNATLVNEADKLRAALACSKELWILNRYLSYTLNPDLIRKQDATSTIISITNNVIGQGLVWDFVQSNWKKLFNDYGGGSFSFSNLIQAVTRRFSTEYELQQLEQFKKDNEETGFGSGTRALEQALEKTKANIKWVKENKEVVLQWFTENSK
Chain of Aminopeptidase B (Q9H4A4 whole entry): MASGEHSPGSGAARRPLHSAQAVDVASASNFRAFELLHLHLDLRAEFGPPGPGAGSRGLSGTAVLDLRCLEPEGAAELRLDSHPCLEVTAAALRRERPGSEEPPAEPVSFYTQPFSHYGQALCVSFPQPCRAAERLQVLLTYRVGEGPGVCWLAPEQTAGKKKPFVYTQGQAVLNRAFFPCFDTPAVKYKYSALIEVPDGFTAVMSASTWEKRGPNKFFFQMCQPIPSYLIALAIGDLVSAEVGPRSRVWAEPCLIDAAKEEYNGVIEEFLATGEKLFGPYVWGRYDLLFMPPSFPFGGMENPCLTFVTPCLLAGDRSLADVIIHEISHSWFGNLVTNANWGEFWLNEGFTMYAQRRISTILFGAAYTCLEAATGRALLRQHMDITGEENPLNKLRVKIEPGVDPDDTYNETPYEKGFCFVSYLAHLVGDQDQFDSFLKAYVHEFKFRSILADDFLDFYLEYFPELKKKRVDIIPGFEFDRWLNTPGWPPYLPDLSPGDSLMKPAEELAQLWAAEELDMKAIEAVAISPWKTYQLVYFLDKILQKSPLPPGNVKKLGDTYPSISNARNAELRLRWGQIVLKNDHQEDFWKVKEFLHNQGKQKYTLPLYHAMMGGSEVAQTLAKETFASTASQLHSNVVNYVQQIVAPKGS

Usually Ki stands for a measure of affinity in units of concentration, obtained from inhibition or displacement. Low readings indicate tighter binding, high ones weaker binding. `CC(C)C[C@H](N)C(=O)CC(Cc1ccccc1)C(=O)O` (stereo partly drawn): the figures for the Ki at Aminopeptidase B, at Aminopeptidase N [1] and at Aminopeptidase N [2] were 0.17 µM, 260 µM and 79 µM, respectively.
Take `CC(C)CCNC(=O)C(=O)[C@H](N)CC(C)C`: the figures for the Ki at Aminopeptidase B and at Aminopeptidase N [3] were 6.5 µM and 18 µM, respectively.
On the same counts, the results for `CC(C)CCNC(=O)C(=O)[C@@H](N)CC(C)C` are 3.2 µM and 10.5 µM.
Consider `CC(C)CCNC(=O)[C@@H](O)[C@H](N)CC(C)C`, for which the results for the Ki on Aminopeptidase B and at Aminopeptidase N [3] were over 300 µM and 24 µM, respectively.
The like results for `CC(C)CCNC(=O)C(=O)C(N)Cc1ccccc1` (stereo not drawn) were, in that order, 1.5 µM and 2.5 µM.
For the compound `CC(C)CCNC(=O)[C@@H](O)[C@H](N)Cc1ccccc1`, the Ki at Aminopeptidase B was 39 µM; at Aminopeptidase N [3], 20 µM.
Consider `CC(C)C[C@H](N)C(=O)CC(C)C(=O)O` (stereo partly drawn), for which the Ki at Aminopeptidase B is 130 µM; at Aminopeptidase N [1], 940 µM; on Aminopeptidase N [2] it was 660 µM.
On to `CC(=O)[C@@H](N)CC(C)C`, for which the Ki at Aminopeptidase B was over 1000 µM; at Aminopeptidase N [3], 430 µM.
